Test results from US12077503B2, “Substituted cyclic amides and their use as herbicides” (FMC CORPORATION, priority 2015, dated 2024).

Assays:
Type in all cases: in vivo
Kochia (Kochia scoparia) [1] = assay: Test A preemergence
Method in brief: (§1)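 Visual injury scores from 0, no effect, to 100, complete control, were assigned versus untreated controls roughly 10 d after treatment in the greenhouse. Test chemicals, formulated with surfactant in a non-phytotoxic solvent, were applied to planted seeds as a preemergence soil spray or postemergence to one- to two-leaf plants 2 to 10 cm tall, in loam–sand soil.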

[2] = test system: barnyardgrass (Echinochloa crus-galli); assay: Test A preemergence
Method in brief: as §1

[3] = test system: giant foxtail (Setaria faberii); assay: Test A preemergence
Method in brief: as §1

[4] = test system: pigweed (Amaranthus retroflexus); assay: Test A preemergence
[5] = test system: ragweed (common ragweed, Ambrosia elatior); assay: Test A preemergence
Method in brief: as §1

[6] = test system: ryegrass, Italian (Italian ryegrass, Lolium multiflorum); assay: Test A preemergence
Method in brief: as §1

[7] = test system: Galium (catchweed bedstraw, Galium aparine); assay: Test A postemergence; settings: postemergence, 0 to 100 scale (0 no effect, 100 complete control)
Method in brief: as §1

Kochia (Kochia scoparia) [8] = assay: Test A postemergence; settings: postemergence, 0 to 100 scale (0 no effect, 100 complete control)
Method in brief: as §1

[9] = test system: barnyardgrass (Echinochloa crus-galli); assay: Test A postemergence; settings: postemergence, 0 to 100 scale (0 no effect, 100 complete control)
Method in brief: as §1

[10] = test system: blackgrass (Alopecurus myosuroides); assay: Test A postemergence; settings: postemergence, 0 to 100 scale (0 no effect, 100 complete control)
Method in brief: as §1

corn (Zea mays) = assay: Test A postemergence; settings: postemergence, 0 to 100 scale (0 no effect, 100 complete control)
Method in brief: as §1

[11] = test system: giant foxtail (Setaria faberii); assay: Test A postemergence; settings: postemergence, 0 to 100 scale (0 no effect, 100 complete control)
Method in brief: as §1

[12] = test system: pigweed (Amaranthus retroflexus); assay: Test A postemergence; settings: postemergence, 0 to 100 scale (0 no effect, 100 complete control)
Method in brief: as §1

[13] = test system: ragweed (common ragweed, Ambrosia elatior); assay: Test A postemergence; settings: postemergence, 0 to 100 scale (0 no effect, 100 complete control)
Method in brief: as §1

[14] = test system: ryegrass, Italian (Italian ryegrass, Lolium multiflorum); assay: Test A postemergence; settings: postemergence, 0 to 100 scale (0 no effect, 100 complete control)
Method in brief: as §1

[15] = test system: wheat (Triticum aestivum); assay: Test A postemergence; settings: postemergence, 0 to 100 scale (0 no effect, 100 complete control)
Method in brief: as §1

[16] = test system: barnyardgrass (Echinochloa crus-galli); assay: Test B flooded paddy test; settings: Flood, 250 g ai/ha; 0 to 100 scale where 0 is no effect and 100 is complete control; 13 to 15 d
Method in brief: (§2)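 Percent control, visually estimated after 13–15 d in the greenhouse on a 0–100 basis, compares treated pots with untreated ones; compound was put into paddy water 3 cm above the soil when plants had two leaves.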

[17] = test system: ducksalad (Heteranthera limosa); assay: Test B flooded paddy test; settings: Flood, 250 g ai/ha; 0 to 100 scale where 0 is no effect and 100 is complete control; 13 to 15 d
Method in brief: as §2

rice (Oryra sativa) = assay: Test B flooded paddy test; settings: Flood, 250 g ai/ha; 0 to 100 scale where 0 is no effect and 100 is complete control; 13 to 15 d
Method in brief: as §2

[18] = test system: sedge, umbrella (small-flower umbrella sedge, Cyperus difformis); assay: Test B flooded paddy test; settings: Flood, 250 g ai/ha; 0 to 100 scale where 0 is no effect and 100 is complete control; 13 to 15 d
Method in brief: as §2

[19] = 125 g ai/ha, Preemergence, visual injury after approximately 10 d, 0 to 100 scale where 0 is no effect and 100 is complete control
[20] = 500 g ai/ha, preemergence, 0 to 100 scale, 0 = no effect, 100 = complete control
[21] = 125 g ai/ha, visual rating after approx. 10 d
[22] = 500 g ai/ha, visual injury, approx. 10 d

CC(C)Oc1cccc(C2CN(C)C(=O)C2C(=O)Nc2cccc(F)c2F)c1 (stereo not drawn) [Compound 651]
Plant response rating, Kochia (Kochia (Kochia scoparia) [1]; [19]): 60
Plant response rating, Kochia (Kochia (Kochia scoparia) [1]; [20]): 70
Plant response rating, Barnyardgrass [2, 19]: 90
Plant response rating, Barnyardgrass [2, 20]: 90
Plant response rating, Foxtail, Giant [3, 19]: 90
Plant response rating, Foxtail, Giant [3, 20]: 100
Plant response rating, Pigweed [4, 19]: 40
Plant response rating, Pigweed [4, 20]: 100
Plant response rating, Ragweed [5, 19]: 50
Plant response rating, Ragweed [5, 20]: 90
Plant response rating, Ryegrass, Italian [6, 19]: 90
Plant response rating, Ryegrass, Italian [6, 20]: 90
Plant response rating, Galium [7, 21]: 60
Plant response rating, Galium [7, 22]: 60
Plant response rating, Kochia (Kochia (Kochia scoparia) [8]; [21]): 0
Plant response rating, Kochia (Kochia (Kochia scoparia) [8]; [22]): 40
Plant response rating, Barnyardgrass [9, 21]: 90
Plant response rating, Barnyardgrass [9, 22]: 90
Plant response rating, Blackgrass [10, 21]: 60
Plant response rating, Blackgrass [10, 22]: 70
Plant response rating, Corn (corn (Zea mays); [21]): 80
Plant response rating, Corn (corn (Zea mays); [22]): 90
Plant response rating, Foxtail, Giant [11, 21]: 80
Plant response rating, Foxtail, Giant [11, 22]: 80
Plant response rating, Pigweed [12, 21]: 0
Plant response rating, Pigweed [12, 22]: 30
Plant response rating, Ragweed [13, 21]: 0
Plant response rating, Ragweed [13, 22]: 20
Plant response rating, Ryegrass, Italian [14, 21]: 50
Plant response rating, Ryegrass, Italian [14, 22]: 70
Plant response rating, Wheat [15, 21]: 40
Plant response rating, Wheat [15, 22]: 60
Plant response rating, Barnyardgrass [16]: 60
Plant response rating, Ducksalad [17]: 100
Plant response rating, Rice (rice (Oryra sativa)): 0
Plant response rating, Sedge, Umbrella [18]: 0
